Reference: patent publication US20060128628A1, “Human tissue antigen-binding peptides and their amino acid sequences” (priority 2004, published 2006)

Legend:
[1] = target: T1, human tissue antigen 0201 (HLA-A0201) (Homo sapiens, UniProt P04439, D140Y/D185E/D98H/E176V/E277Q/G131W/G231S/I119V/I121R/I166T/I218V/L300P/L318F/N151K/N90K/P208A/P217A/Q86G/Q94H/R138H/R169H/T345S); assay type: cell-based
T1 construct: T2 cell line is a cell line lacking of the transporters associated with antigen processing (TAP), TAP1 and TAP2; endogenous in cells; host or cells: T2 cell line (TAP1/TAP2-deficient)

[2] = tested on: spleen lymphocytes expressing simultaneously CD8+ and IFN-γ+; design: species or system C57BL/6 mice transgenic for human tissue antigen 0201; conditions: in vivo

Row | Sequence | binding to human tissue antigen 0201 on T2 cells (HLA-A2 expression, median fluorescence intensity) [1] | induction of antigen-specific cytotoxicity (lymphocytes expressing simultaneously CD8+ and IFN-γ+) [2] | induction of cytotoxicity by vaccine containing peptide (proportion of spleen lymphocytes expressing CD8+ and IFN-γ+) [2] | relative binding ability among peptides S1-S10 in the T2 cell binding test [1]
1 | VLNDILSRL [S4] | could bind to the human tissue antigen 0201 |  |  | 
2 | VVFLHVTYV [S2] | could bind to the human tissue antigen 0201 | could induce cytotoxicity | could induce cytotoxicity | strongest binding ability
3 | NLNESLIDL [S1] | could bind to the human tissue antigen 0201 |  |  | 
4 | ILPDPLKPT [S6] | could bind to the human tissue antigen 0201 | could induce cytotoxicity | could induce cytotoxicity | strongest binding ability
5 | VLYENQKQI [S5] | could bind to the human tissue antigen 0201 |  |  | 
